Columns and labels:
Assay type in all cases: cell-based
[1] = test system: cholangiocarcinoma cells (SNU1079, SNU1196); test: AGX-A cyclodextrin formulations on cholangiocarcinoma cells (24 hour cell viability)
Description: To overcome the issue DMSO posed, investigations were performed to develop a formulation that was compatible with AGX-A as well as well-suited for administration.
Ultimately, a particularly efficacious formulation employing 2-hydroxypropyl-β-cyclodextrin (“HPBCD”) was discovered. […] Representative data is illustrated in FIGS. 25A-25B which provide the results of 24 hour cell viability studies for SNU1079 cells and SNU1196 cells, respectively.

ID1-E47 = target: T1, ID1-E47 (Homo sapiens, UniProt P41134); test: Immunoprecipitation of endogenous ID1 and E47 in HCT116 cells; conditions: 60 μM, one hour
T1 construct: host or cells: HCT116
Description: Immunoprecipitation. Cells were lysed in NP40 lysis buffer (50 mM Tris-HCl, pH 7.5, 150 mM NaCl, 1 mM EDTA, 1% NP40, 1.5 mM Na3VO4, 50 mM sodium fluoride, 10 mM sodium pyrophosphate, 10 mM P-glycerolphosphate and EDTA free protease inhibitor cocktail (Roche)) or RIPA buffer (50 mM Tris-HCl, pH 7.5, 150 mM NaCl, 1 mM EDTA, 1% NP40, 0.5% Sodium Deoxycholate, 0.1% Sodium dodecyl sulfate, 1.5 mM Na3VO4, 50 mM sodium fluoride, 10 mM sodium pyrophosphate, 10 mM P-glycerolphosphate and EDTA free protease inhibitor cocktail (Roche)). Lysates were cleared by centrifuge at 15,000 rpm for 15 minutes at 4° C. For immunoprecipitation, cell lysates were incubated with primary antibody (FLAG M2 affinity gel, Sigma, F2426; ID1 (C-20), Santa Cruz, sc-488; E2A (N-649), Santa Cruz, sc-763) and protein G/A beads (Santa Cruz, sc-2003) at 4° C. overnight. Beads were washed with lysis buffer four times and eluted in 2×SDS sample buffer. Protein samples were separated by SDS-PAGE and transferred to a polyvinylidene fluoride (PVDF) membrane. Membranes were blocked in TBS containing 5% non-fat milk and 0.1% Tween20, and probed with primary antibodies. […]

HCT116 cells = test: HCT116 MTT viability, cell cycle and Cyclin D1; conditions: HCT116, 40 μM
Description: Immunoblotting. For immunoblotting, cells were collected by trypsinization, washed with PBS and lysed in homogenization buffer (0.3 M sucrose, 10 mM Tris (pH 8.0), 400 mM sodium chloride, 3 mM magnesium chloride, 0.5% NP40/IGEPAL, 100 μg/mL Aprotinin+Protease inhibitor cocktail (Roche #11 836 153 001). Proteins were separated by SDS-PAGE, transferred to a membrane (LI-COR), probed with primary antibodies overnight at 4° C., and probed with secondary antibodies (LI-COR) for 1-2 hours at room temperature. Proteins were visualized using the LI-COR Odyssey Infrared Imaging detection system. The following primary antibodies were used Id1, Id2, Id3, Id4 (195-14, 9-2-8, 17-3, 82-12, respectively, all from Biocheck), Cyclin D1 (2978, Cell Signaling), Actin (A2066, Sigma), Tubulin (T4026, Sigma). Western blot quantification was carried out using channel 700 and channel 800 intensity data from Odyssey application software version 3.0.30 (LI-COR), subtracting blank values and normalizing to Tubulin.
Cell viability assays. Cell lines were seeded in a 96 well plate (5000 cells per well). After overnight incubation, cells were treated with AGX51 and incubated for 24 hours then MTT reagent (5 mg/mL) was added per well and the cells were incubated for four hours. Following incubation, media was aspirated and 200 μL DMSO was added per well. Absorbance was then measured at 570 nm using a plate reader (Synergy 2, BioTek). Cell growth profiles were determined by seeding 38,000 cells in a 24-well plate, in triplicate for each time point, and counting the cells on days 1, 3 and 5 after seeding, using trypan blue exclusion of dead cells.
Cell cycle analysis. […] For cell cycle analysis cells were centrifuged 1000 rpm for 5 minutes, washed with 1×PBS and then resuspended in 0.5 mL PI/RNase staining buffer (550825, BD Biosciences), incubated for 15 minutes at room temperature and analyzed by flow cytometry (LSR II).

T1 sequence (P41134 whole entry): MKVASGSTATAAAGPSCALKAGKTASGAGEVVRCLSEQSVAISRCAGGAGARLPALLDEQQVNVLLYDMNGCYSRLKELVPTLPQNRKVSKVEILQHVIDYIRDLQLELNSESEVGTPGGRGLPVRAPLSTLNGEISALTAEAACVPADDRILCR

Compound	AGX-A activity against cholangiocarcinoma cells ([1]; aqueous solution with HPBCD, 24 hour)	AGX-A induced cell death ([1]; formulations with sulfobutylether-β-cyclodextrin (CAPTISOL))	co-precipitated ID1/E47 proteins (ID1-E47)	Cyclin D1 levels (HCT116 cells; 0-48 hours)	cell cycle (HCT116 cells; 4-24 hours)	cell viability (HCT116 cells; 24 hours)
COc1ccccc1C(CCNCc1ccccc1)c1ccc(OC(C)C)cc1 (stereo not drawn) [AGX-A, N-benzyl-3-(4-isopropoxyphenyl)-3-(2-methoxyphenyl)propan-1-anine]	preserving AGX-A activity	neutralized AGX-A induced cell death				
CCC(=O)N(CCC(c1ccc2c(c1)OCO2)c1ccccc1OC)Cc1ccccc1 (racemic) [AGX51, N-(3-(benzo[d][1,3]dioxol-5-yl)-3-(2-methoxyphenyl)propyl)-N-benzylpropionamide]			markedly reduced the levels of the co-precipitated proteins	reduction in Cyclin D1 levels	G0/G1 growth arrest	reduced cell viability
